Activity calls are given as the source filed them.
What was measured:
[1] = target: Eukaryotic translation initiation factor 4E (Mus musculus, UniProt P63073); assay: blockers of eIF4G binding by eIF4E – biochemical, TR-FRET, dose response (AID 855); assay type: functional;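 note: potency for disrupting eIF4E binding to eIF4GI seen as loss of FRET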
[2] = target: Peroxisome proliferator-activated receptor gamma/Nuclear receptor coactivator 1 (Homo sapiens, UniProt P37231); assay: TR-FRET dose response biochemical High Throughput Screening assay for agonists of the steroid receptor coactivator 1 (SRC-1) recruitment by the peroxisome proliferator-activated receptor gamma (PPAR gamma): non-selective agonists. [Related pubchem assays (depositor defined):AID1300, AID1808, AID504735, AID631]; assay type: protein assay
Chain of Peroxisome proliferator-activated receptor gamma/Nuclear receptor coactivator 1 (P37231 whole entry): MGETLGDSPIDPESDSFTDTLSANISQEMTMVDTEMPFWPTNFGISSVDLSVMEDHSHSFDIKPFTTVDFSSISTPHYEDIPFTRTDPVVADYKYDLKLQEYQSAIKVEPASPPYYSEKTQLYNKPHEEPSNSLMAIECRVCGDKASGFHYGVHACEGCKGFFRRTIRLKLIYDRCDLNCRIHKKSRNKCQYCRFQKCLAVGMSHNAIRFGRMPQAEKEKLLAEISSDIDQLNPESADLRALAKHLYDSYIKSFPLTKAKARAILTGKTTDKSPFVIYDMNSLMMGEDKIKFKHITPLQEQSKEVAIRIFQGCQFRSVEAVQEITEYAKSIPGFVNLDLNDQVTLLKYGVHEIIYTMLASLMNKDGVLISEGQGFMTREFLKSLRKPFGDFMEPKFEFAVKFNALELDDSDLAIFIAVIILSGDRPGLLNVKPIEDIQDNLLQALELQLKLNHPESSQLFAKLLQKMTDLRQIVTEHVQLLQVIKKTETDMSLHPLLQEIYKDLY
Chain of Peroxisome proliferator-activated receptor gamma/Nuclear receptor coactivator 1 (Q15788 whole entry, further chain): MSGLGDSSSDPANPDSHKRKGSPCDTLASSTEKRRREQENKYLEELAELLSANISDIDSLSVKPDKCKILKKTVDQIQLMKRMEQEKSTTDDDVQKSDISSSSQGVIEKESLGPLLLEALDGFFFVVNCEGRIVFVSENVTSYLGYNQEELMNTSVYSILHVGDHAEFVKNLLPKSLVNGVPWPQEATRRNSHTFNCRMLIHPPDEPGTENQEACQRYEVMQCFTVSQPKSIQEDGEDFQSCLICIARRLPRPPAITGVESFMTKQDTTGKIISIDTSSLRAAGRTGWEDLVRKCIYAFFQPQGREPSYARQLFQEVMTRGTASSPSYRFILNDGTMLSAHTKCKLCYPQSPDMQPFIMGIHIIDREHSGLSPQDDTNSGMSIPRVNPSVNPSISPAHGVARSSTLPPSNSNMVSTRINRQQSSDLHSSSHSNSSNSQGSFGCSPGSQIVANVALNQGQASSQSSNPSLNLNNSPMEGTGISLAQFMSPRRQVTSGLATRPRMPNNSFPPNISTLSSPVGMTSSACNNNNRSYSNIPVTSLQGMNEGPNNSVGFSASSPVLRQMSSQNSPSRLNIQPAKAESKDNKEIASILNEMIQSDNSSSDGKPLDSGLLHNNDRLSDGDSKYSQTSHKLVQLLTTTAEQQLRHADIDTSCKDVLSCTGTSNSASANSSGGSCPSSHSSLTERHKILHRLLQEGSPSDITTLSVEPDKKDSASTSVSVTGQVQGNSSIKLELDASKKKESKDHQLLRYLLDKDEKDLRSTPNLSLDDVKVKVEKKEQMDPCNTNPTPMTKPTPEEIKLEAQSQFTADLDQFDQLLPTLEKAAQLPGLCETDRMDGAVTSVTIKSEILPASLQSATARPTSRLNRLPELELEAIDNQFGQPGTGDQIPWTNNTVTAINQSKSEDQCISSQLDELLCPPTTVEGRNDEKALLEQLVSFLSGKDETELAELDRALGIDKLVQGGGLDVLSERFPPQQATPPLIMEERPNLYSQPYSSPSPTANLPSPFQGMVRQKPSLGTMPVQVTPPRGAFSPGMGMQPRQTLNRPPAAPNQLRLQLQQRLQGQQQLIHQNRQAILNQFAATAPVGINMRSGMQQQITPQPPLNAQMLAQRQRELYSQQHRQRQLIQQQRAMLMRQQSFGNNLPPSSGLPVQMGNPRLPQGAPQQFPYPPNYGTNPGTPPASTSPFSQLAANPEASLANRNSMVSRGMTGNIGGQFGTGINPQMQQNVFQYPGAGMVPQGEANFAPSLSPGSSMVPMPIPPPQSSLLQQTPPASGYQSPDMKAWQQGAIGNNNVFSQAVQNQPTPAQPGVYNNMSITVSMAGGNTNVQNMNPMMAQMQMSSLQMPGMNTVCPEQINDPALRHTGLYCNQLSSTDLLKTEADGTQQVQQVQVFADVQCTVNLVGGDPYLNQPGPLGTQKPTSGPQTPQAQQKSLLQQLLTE

[3] = target: Induced myeloid leukemia cell differentiation protein Mcl-1 (Homo sapiens, UniProt Q07820); assay type: functional
Chain of Induced myeloid leukemia cell differentiation protein Mcl-1 (Q07820 whole entry): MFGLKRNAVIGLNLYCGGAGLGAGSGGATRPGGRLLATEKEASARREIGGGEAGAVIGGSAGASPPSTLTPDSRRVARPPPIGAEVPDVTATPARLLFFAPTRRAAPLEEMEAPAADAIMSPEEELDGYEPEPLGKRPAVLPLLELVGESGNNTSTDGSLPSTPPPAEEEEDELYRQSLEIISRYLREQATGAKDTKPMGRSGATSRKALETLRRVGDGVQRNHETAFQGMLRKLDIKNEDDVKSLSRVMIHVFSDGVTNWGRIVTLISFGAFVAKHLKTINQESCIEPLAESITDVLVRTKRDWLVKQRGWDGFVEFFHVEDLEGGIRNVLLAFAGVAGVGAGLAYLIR

[4] = reduction of Shn3 3'UTR-driven luciferase in osteoblasts – cell-based, Clone20 osteoblasts, firefly luciferase, cherry-picked, dose response (AID 624132); assay type: functional;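 note: firefly luciferase luminescence from reporter carrying the Shn3 3'UTR in osteoblasts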
[5] = target: Peroxisome proliferator-activated receptor gamma/Nuclear receptor coactivator 2 (Homo sapiens, UniProt P37231); assay: TR-FRET dose response biochemical High Throughput Screening assay for agonists of the steroid receptor coactivator 2 (SRC-2) recruitment by the peroxisome proliferator-activated receptor gamma (PPAR gamma): non-selective agonists. [Related pubchem assays: 1297, 1032 ]; assay type: functional
[6] = non-specific 3'UTR reporter inhibition in Clone20-Shn3RL – cell-based, Renilla luciferase, cherry-picked, counter-screen for Shn3 inhibitor project, dose response (AID 624133); assay type: functional
[7] = target: Heat shock protein HSP 90-alpha (Homo sapiens, UniProt P07900); assay type: functional, organism-based
[8] = target: Glucose-6-phosphate 1-dehydrogenase (Homo sapiens, UniProt P11413); assay: inhibition of Homo sapiens G6PD, dose series – biochemical, fluorescence, selectivity assay for P. falciparum G6PD inhibitor project, dose response (AID 504792); assay type: functional
Chain of Glucose-6-phosphate 1-dehydrogenase (P11413 whole entry): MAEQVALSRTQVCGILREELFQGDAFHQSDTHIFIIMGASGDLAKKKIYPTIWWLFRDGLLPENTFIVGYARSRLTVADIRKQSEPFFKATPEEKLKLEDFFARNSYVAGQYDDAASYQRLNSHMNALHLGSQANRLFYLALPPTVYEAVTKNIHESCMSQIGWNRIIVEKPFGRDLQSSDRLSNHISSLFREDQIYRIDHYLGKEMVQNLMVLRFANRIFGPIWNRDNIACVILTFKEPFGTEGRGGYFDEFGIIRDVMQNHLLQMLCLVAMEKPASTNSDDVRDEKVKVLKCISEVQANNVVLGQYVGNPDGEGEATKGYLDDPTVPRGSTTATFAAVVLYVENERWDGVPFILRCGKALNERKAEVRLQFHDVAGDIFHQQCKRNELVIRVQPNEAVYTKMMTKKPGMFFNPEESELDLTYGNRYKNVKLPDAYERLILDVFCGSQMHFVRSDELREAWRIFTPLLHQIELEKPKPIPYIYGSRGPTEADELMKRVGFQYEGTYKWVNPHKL

[9] = target: G-protein coupled receptor 55 (Homo sapiens, UniProt Q9Y2T6); assay: inhibition of LPI-stimulated GPR55 beta-arrestin translocation – imaging, U2OS, beta-arrestin-GFP, LPI agonist, primary screen (AID 2013); assay type: functional;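 note: antagonist potency measured as reduced agonist-driven arrestin aggregation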
Chain of G-protein coupled receptor 55 (Q9Y2T6 whole entry): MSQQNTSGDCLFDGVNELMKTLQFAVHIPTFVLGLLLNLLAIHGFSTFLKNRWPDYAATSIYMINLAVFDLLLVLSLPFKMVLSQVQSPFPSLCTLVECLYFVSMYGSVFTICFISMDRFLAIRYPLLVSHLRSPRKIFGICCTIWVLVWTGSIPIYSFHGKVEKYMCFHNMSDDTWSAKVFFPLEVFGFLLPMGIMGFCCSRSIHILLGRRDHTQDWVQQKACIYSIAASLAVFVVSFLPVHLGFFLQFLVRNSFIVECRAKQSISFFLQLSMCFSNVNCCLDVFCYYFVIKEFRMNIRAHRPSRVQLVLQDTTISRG

[10] = Luminescence-based dose response cell-based high throughput screening assay for cytotoxic compounds using the IEC-6 intestinal epithelial cell line. [Related pubchem assays: 1858 (Summary AID.), 1825 (Counterscreen.), 1907 (Confirmation screen.)]; assay type: functional
Nonstructural protein 1 = Nonstructural protein 1 (Influenza A virus, UniProt Q194T2); assay type: functional, Influenza A virus (A/California/07/2009(H1N1))
Chain of Nonstructural protein 1 (Q194T2 whole entry): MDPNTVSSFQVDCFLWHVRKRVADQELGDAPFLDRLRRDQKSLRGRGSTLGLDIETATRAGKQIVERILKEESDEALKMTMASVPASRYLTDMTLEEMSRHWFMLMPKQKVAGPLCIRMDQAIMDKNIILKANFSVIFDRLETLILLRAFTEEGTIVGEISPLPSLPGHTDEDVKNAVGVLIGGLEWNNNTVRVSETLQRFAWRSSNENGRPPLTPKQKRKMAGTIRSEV

[11] = target: Peroxisome proliferator-activated receptor gamma/Nuclear receptor coactivator 3 (Homo sapiens, UniProt P37231); assay: TR-FRET dose response biochemical High Throughput Screening assay for agonists of the steroid receptor coactivator 3 (SRC-3) recruitment by the peroxisome proliferator-activated receptor gamma (PPAR gamma): non-selective agonists. [Related pubchem assays: 1301 (Confirmation screen.), 1048 (Primary screen.)]; assay type: functional
[12] = loss of viability in HepG2 cells – cell-based, CellTiter-Glo, cherry-picked, cytotoxicity control for Shn3 inhibitor project, dose response (AID 624134); assay type: functional
[13] = target: T1, Short transient receptor potential channel 4 (Mus musculus, UniProt Q9QUQ5); assay: potentiation of DAMGO-evoked TRPC4 calcium signal – cell-based, HEK293 TRPC4/mu-opioid, Fluo-4 calcium, EC20 DAMGO, dose response (AID 434941); assay type: functional
T1 sequence (Q9QUQ5 whole entry): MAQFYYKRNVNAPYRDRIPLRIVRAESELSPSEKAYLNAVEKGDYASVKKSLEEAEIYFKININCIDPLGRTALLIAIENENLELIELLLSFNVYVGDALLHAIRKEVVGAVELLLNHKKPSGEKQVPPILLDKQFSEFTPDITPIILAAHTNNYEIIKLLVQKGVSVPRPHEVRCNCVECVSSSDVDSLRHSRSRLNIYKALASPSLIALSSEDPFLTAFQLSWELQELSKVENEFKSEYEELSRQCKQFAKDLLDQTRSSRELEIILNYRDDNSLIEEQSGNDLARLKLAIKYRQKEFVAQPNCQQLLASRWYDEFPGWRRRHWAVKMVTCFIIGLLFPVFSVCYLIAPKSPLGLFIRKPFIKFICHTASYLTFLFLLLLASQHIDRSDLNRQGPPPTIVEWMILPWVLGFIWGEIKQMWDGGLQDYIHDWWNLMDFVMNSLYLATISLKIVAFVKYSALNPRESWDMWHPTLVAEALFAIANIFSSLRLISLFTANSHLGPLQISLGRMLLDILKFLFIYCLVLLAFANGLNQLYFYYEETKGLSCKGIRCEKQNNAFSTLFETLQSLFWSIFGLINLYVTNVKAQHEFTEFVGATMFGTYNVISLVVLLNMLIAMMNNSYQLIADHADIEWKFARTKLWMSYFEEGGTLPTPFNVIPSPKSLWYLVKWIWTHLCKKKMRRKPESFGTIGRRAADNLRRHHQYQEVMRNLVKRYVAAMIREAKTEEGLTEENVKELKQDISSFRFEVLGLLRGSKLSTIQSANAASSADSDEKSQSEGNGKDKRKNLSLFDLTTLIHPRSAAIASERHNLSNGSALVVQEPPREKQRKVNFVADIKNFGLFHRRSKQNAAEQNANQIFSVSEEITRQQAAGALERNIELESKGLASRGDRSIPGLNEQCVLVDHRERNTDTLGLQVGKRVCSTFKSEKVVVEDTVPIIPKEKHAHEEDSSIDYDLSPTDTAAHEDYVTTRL

[14] = target: Delta-type opioid receptor (Homo sapiens, UniProt P41143); assay: SAR Analysis of Antagonists of the DOR Receptor using an Image-Based Assay - Set 3. [Related pubchem assays (depositor defined):AID1777, AID1785]; assay type: functional;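 note: U2OS cells expressing DOR1 and beta-arrestin GFP stimulated with 100 nM SNC80; imaging of GFP-tagged beta-arrestin moving into spots after receptor activation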
Chain of Delta-type opioid receptor (P41143 whole entry): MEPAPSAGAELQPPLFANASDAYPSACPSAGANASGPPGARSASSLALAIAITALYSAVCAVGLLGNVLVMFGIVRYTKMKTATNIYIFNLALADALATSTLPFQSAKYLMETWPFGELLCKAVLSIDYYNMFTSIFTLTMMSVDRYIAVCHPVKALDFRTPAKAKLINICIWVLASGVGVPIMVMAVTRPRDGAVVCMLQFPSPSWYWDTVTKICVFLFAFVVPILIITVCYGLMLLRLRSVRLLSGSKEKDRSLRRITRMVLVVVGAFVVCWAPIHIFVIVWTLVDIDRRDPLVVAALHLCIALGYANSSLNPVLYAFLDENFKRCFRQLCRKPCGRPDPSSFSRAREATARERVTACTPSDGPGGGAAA

[15] = target: T2, Kappa-type opioid receptor (Homo sapiens, UniProt P41145); assay: SAR analysis of Antagonists of the Kappa Opioid Receptor (KOR) using an Image-Based Assay - Set 4. [Related pubchem assays (depositor defined):AID1777, AID1785]; assay type: functional
T2 sequence (P41145 whole entry): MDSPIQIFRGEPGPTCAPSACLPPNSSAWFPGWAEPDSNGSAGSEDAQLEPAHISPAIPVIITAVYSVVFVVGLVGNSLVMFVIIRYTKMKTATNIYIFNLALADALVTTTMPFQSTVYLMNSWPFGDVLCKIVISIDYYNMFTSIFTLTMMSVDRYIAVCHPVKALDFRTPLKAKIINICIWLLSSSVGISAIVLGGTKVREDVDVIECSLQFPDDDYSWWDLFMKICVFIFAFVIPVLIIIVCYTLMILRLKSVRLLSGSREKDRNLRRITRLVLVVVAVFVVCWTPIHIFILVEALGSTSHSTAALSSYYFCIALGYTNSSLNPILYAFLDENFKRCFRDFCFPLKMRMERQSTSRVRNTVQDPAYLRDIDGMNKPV

Mu-type opioid receptor = Mu-type opioid receptor (Homo sapiens, UniProt P35372); assay: SAR Analysis of Antagonists of the MOR Receptor using an Image-Based Assay - Set 3. [Related pubchem assays (depositor defined):AID1777, AID1785, AID1786, AID1966, AID2133, AID2136, AID2284, AID2285, AID2420]; assay type: functional
Chain of Mu-type opioid receptor (P35372 whole entry): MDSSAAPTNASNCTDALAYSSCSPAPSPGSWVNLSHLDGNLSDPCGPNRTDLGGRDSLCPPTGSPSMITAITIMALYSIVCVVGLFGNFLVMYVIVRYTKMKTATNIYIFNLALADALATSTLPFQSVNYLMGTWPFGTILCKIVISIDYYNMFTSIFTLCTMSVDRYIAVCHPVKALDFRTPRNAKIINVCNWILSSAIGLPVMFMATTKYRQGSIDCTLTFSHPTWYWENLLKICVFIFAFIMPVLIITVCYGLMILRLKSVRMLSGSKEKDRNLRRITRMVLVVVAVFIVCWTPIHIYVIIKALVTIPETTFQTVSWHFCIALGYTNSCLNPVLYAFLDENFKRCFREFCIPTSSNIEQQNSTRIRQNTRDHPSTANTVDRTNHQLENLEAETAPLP

[16] = target: T2, Kappa-type opioid receptor; assay: SAR analysis of small molecule antagonists of the kappa opioid receptor via a luminescent beta-arrestin assay - Set 3. [Related pubchem assays (depositor defined):AID1777, AID1778, AID1785, AID1786, AID1966, AID2133, AID2136, AID2285, AID2495]; assay type: functional
[17] = target: T3, Dual specificity protein phosphatase 6 (Rattus norvegicus, UniProt Q64346); assay type: functional;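 note: confirmatory in vitro dose-response testing of MKP-3 inhibition; recombinant His-tagged MKP-3 made in E. coli BL21 with OMFP substrate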
T3 sequence (Q64346 whole entry): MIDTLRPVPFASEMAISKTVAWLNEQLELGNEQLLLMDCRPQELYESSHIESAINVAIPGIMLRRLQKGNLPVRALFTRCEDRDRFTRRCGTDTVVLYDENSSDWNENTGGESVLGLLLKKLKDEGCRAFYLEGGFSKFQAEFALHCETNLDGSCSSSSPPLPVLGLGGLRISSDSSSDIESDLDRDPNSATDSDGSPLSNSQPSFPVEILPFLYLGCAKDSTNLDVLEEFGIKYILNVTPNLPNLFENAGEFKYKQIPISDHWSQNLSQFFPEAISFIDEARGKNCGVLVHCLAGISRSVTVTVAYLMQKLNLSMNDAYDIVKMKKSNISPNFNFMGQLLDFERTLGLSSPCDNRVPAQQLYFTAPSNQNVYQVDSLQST

[18] = target: T4, Tyrosine-protein phosphatase non-receptor type 7 (Homo sapiens, UniProt P35236); assay: redox-active compounds inhibiting HePTP phosphatase – biochemical, fluorescence, mechanism study (AID 2068); assay type: functional
T4 sequence (P35236 whole entry): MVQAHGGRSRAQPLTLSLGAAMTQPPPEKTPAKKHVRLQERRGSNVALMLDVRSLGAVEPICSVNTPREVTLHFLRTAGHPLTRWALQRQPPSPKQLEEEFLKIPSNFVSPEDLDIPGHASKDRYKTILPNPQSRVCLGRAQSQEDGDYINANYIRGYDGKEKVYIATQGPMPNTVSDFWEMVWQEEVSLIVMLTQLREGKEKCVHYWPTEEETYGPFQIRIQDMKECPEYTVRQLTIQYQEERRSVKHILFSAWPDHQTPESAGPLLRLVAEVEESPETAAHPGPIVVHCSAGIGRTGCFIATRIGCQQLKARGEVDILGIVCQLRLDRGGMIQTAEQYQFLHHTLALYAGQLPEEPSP

[19] = target: T5, Tyrosine-protein phosphatase non-receptor type 22 (Homo sapiens, UniProt Q9Y2R2); assay: SAR LYP1 Fluorescent Assay using OMFP substrate for In Vitro dose response studies - Set 3. [Related pubchem assays (depositor defined):AID1779, AID1784, AID2140, AID2686]; assay type: functional
T5 sequence (Q9Y2R2 whole entry): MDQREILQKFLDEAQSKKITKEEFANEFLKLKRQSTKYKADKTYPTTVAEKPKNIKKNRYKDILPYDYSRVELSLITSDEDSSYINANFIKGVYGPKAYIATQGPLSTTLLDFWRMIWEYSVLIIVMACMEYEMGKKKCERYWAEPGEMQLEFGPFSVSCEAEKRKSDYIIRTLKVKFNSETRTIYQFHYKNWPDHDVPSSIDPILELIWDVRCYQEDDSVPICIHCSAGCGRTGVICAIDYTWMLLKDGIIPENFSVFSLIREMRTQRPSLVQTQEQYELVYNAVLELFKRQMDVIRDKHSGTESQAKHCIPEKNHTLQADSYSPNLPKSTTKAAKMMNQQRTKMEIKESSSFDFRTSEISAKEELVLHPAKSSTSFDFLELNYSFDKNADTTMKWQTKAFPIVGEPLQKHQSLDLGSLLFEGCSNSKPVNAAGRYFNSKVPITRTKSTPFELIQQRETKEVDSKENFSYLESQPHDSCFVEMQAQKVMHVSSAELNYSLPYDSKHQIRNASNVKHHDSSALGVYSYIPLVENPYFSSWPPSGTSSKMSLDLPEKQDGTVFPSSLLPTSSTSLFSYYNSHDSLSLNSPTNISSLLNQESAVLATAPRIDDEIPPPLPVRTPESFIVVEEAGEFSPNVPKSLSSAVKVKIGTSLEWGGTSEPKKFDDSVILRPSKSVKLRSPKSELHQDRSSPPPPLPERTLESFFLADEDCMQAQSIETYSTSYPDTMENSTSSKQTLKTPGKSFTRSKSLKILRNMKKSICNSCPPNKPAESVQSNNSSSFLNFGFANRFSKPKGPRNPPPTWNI

[20] = target: Dual specificity protein phosphatase 3 (Homo sapiens, UniProt P51452); assay: SAR VHR1 Fluorescent Assay for In Vitro dose response studies Set 2. [Related pubchem assays (depositor defined):AID1654, AID1661, AID1878]; assay type: functional
Chain of Dual specificity protein phosphatase 3 (P51452 whole entry): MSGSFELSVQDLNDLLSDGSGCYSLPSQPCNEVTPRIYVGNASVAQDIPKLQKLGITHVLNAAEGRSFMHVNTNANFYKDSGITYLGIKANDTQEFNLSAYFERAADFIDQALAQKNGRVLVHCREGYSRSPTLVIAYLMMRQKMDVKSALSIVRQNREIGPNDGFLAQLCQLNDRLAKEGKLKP

[21] = target: T6, Tyrosine-protein phosphatase non-receptor type 12 (Homo sapiens, UniProt Q05209); assay: SAR Selectivity Analysis of small molecule inhibitors of PEST using pCAP in a fluorescence assay. [Related pubchem assays (depositor defined):AID1779, AID1784, AID2135]; assay type: functional
T6 sequence (Q05209 whole entry): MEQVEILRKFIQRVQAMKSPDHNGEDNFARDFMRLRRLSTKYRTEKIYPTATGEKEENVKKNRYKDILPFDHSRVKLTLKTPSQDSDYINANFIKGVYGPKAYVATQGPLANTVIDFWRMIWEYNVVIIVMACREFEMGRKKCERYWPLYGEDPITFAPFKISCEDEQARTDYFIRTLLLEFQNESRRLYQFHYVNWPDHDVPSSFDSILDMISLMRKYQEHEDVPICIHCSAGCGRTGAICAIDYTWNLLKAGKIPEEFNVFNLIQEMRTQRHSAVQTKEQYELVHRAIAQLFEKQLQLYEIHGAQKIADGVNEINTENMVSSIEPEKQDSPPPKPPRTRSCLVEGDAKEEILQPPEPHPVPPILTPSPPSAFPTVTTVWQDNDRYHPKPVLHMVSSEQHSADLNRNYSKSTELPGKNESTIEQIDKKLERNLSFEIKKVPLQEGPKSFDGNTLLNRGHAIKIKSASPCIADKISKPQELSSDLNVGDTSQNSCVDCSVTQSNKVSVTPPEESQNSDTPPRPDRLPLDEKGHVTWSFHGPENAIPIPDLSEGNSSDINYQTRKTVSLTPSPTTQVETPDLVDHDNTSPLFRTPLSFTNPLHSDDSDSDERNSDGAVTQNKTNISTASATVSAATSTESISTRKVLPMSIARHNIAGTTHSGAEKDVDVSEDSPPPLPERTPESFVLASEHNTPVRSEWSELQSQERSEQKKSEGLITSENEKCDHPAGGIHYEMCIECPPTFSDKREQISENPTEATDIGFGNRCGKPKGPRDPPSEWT

[22] = target: T5, Tyrosine-protein phosphatase non-receptor type 22; assay: inhibition of lymphoid tyrosine phosphatase LYP – biochemical, pCAP fluorogenic substrate, fluorescence, set 3, SAR follow-up (AID 449727); assay type: functional
T-cell = assay: loss of vesicle association with mouse CD8+ T cells – mouse 2C CD8+ T cells, flow cytometry, dose response (AID 485284); assay type: functional

Chain of Eukaryotic translation initiation factor 4E (P63073 whole entry): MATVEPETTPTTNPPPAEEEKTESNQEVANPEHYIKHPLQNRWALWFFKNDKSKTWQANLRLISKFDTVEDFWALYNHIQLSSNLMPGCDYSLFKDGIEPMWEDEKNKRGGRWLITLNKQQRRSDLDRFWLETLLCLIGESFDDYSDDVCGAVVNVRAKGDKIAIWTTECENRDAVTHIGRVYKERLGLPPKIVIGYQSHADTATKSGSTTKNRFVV

CN(C)c1ccc(/C=C/c2ccc3c4ccccc4ccc3[n+]2-c2ccccc2)cc1
IC50 [1]: 50 µM (inactive)
EC50 [2]: 19.2 µM (inactive)
IC50 [3]: 4.64 µM (not active)
AC50 [4]: < 0.26 µM (active)
EC50 [5]: 17 µM (not active)
AC50 [6]: 4.32 µM (active)
AC50 [7]: 3.19 µM (active)
IC50 [8]: > 80 µM (inactive)
IC50 [9]: 0.699 µM (active)
IC50 [10]: 2.41 µM (active)
IC50 (Nonstructural protein 1): 2.36 µM (active)
EC50 [11]: 85.7 µM (not active)
AC50 [12]: 2.21 µM (active)

COC(=O)[C@@]12CCCCN1[C@H](c1ccc(-c3cccc(Cl)c3)c(OC)c1)[C@H]1C(=O)N(C)C(=O)[C@H]12
EC50 [13]: 2.11 µM (active)

O=C(NCCN(Cc1ccccc1)Cc1ccccc1)c1ccc(CNS(=O)(=O)c2ccccc2)cc1
IC50 [14]: > 32 µM (inactive)
IC50 [15]: > 32 µM (inactive)
IC50 (Mu-type opioid receptor): > 32 µM (inactive)
IC50 [16]: > 20 µM (inactive)

COc1cc(/C=C2\SC(=O)N(CC(=O)Nc3cccc(C)c3)C2=O)cc(Cl)c1OCC(=O)O
IC50 [17]: > 100 µM (inactive)
IC50 [18]: 3.63 µM (active)
IC50 [19]: 4.96 µM (active)
IC50 [20]: 17.9 µM (active)
IC50 [21]: 2.2 µM (active)
IC50 [22]: 3.69 µM (active)

O=C(OCCOc1cccc(Cl)c1)c1ccc(F)c(S(=O)(=O)N2CCOCC2)c1
EC50 (T-cell): 12.4 µM (active)

— ChEMBL document CHEMBL1201862, “PubChem BioAssay data set” (2004)
